In PubChem BioAssay AID328 (DTP/NCI, 2004):
Several values for one entry are separate records, joined by “and”; a condition that tells them apart may be missing. Equal entries are not always repeated. Toxic doses and inconclusive results are not listed. The calls were made as follows: active = survival T/C of 150% or more; inactive = T/C below 125% in these data.

Tested on: BDF1 mice, P388 leukemia ip, median survival T/C
Test: NCI In Vivo Anticancer Drug Screen. Data for tumor model P388 Leukemia (intraperitoneal) in B6D2F1 (BDF1) mice
Details: endpoint: median survival time, higher = longer survival
Procedure, shortened: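 Each value expresses how treatment altered survival: treated-mouse outcome over vehicle-mouse outcome, both groups bearing the transplanted tumour.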

[1] = dose: 100.0 mg/kg/injection, schedule: Q01DX009 (ip), vehicle: Klucel (hydroxypropylcellulose) (HPC)
[2] = dose: 100.0 mg/kg/injection, schedule: Q04DX003 (ip), vehicle: Klucel (hydroxypropylcellulose) (HPC)
[3] = dose: 200.0 mg/kg/injection, schedule: Q01DX009 (ip), vehicle: Klucel (hydroxypropylcellulose) (HPC)
[4] = dose: 200.0 mg/kg/injection, schedule: Q04DX003 (ip), vehicle: Klucel (hydroxypropylcellulose) (HPC)
[5] = dose: 400.0 mg/kg/injection, schedule: Q01DX009 (ip), vehicle: Klucel (hydroxypropylcellulose) (HPC)
[6] = dose: 400.0 mg/kg/injection, schedule: Q04DX003 (ip), vehicle: Klucel (hydroxypropylcellulose) (HPC)
[7] = dose: 6.25 mg/kg/injection, schedule: Q04DX003 (ip), vehicle: saline with Tween-80
[8] = dose: 200.0 mg/kg/injection, schedule: Q01DX009 (ip), vehicle: saline
[9] = dose: 50.0 mg/kg/injection, schedule: Q01DX009 (ip), vehicle: saline with Tween-80
[10] = dose: 100.0 mg/kg/injection, schedule: Q01DX009 (ip), vehicle: saline with Tween-80
[11] = dose: 200.0 mg/kg/injection, schedule: Q01DX009 (ip), vehicle: saline with Tween-80
[12] = dose: 6.25 mg/kg/injection, schedule: Q01DX009 (ip), vehicle: saline
[13] = dose: 25.0 mg/kg/injection, schedule: Q01DX009 (ip), vehicle: saline
[14] = dose: 25.0 mg/kg/injection, schedule: Q04DX003 (ip), vehicle: saline
[15] = dose: 100.0 mg/kg/injection, schedule: Q04DX003 (ip), vehicle: saline
[16] = dose: 200.0 mg/kg/injection, schedule: Q04DX003 (ip), vehicle: saline with Tween-80
[17] = dose: 12.5 mg/kg/injection, schedule: Q01DX009 (ip), vehicle: saline
[18] = dose: 10.0 mg/kg/injection, schedule: Q01DX009 (ip), vehicle: saline with Tween-80

Measured: T/C

Cc1ccccc1C1(c2ccccc2C)OC(=O)c2ccccc21
inactive: [1] 90 % of control | [2] 95 % of control | [3] 104 % of control | [4] 91 % of control | [5] 90 % of control | [6] 87 % of control

Nc1cncc2ncc(-c3ccc(Cl)c(Cl)c3)nc12
inactive: dose: 100.0 mg/kg/injection, schedule: Q01DX001 (ip), vehicle: saline sonified 91 % of control | dose: 200.0 mg/kg/injection, schedule: Q01DX001 (ip), vehicle: saline sonified 100 % of control | dose: 400.0 mg/kg/injection, schedule: Q01DX001 (ip), vehicle: saline sonified 104 % of control

O=[N+]([O-])c1ccc(N/N=C/CCl)c([N+](=O)[O-])c1
inactive: [7] 120 % of control | dose: 12.5 mg/kg/injection, schedule: Q04DX003 (ip), vehicle: saline with Tween-80 120 % of control | dose: 16.5 mg/kg/injection, schedule: Q04DX003 (ip), vehicle: saline with Tween-80 118 % of control | dose: 25.0 mg/kg/injection, schedule: Q04DX003 (ip), vehicle: saline with Tween-80 118 % of control

O.O.O.O.O=C([OH2+])CN=Cc1ccccc1O.O=C([OH2+])CN=Cc1ccccc1O.[Ni].[Ni]
inactive: dose: 4.0 mg/kg/injection, schedule: Q01DX009 (ip), vehicle: saline with Tween-80 100 % of control | [7] 113 % of control | dose: 8.0 mg/kg/injection, schedule: Q01DX009 (ip), vehicle: saline with Tween-80 115 % of control

OCCCN1CCCCC1CO (centres undefined)
active: [8] 165 % of control

O=C(CCl)Oc1ccc(-c2ccccc2)cc1Br
inactive: [9] 105 % of control | [10] 102 % of control | [11] 103 % of control | dose: 400.0 mg/kg/injection, schedule: Q01DX009 (ip), vehicle: saline with Tween-80 88 % of control

CC(Cc1ccc2c(c1)OCO2)C(C)Cc1ccc2c(c1)OCO2 (centres undefined)
inactive: dose: 100.0 mg/kg/injection, schedule: Q01DX001 (ip), vehicle: Klucel (hydroxypropylcellulose) (HPC) 100 % of control | dose: 200.0 mg/kg/injection, schedule: Q01DX001 (ip), vehicle: Klucel (hydroxypropylcellulose) (HPC) 100 % of control | dose: 400.0 mg/kg/injection, schedule: Q01DX001 (ip), vehicle: Klucel (hydroxypropylcellulose) (HPC) 100 % of control

c1ccc2c(c1)C1CC(N3CCCCC3)C2c2ccccc21 (centres undefined)
inactive: [1] 90 % of control | [2] 95 % of control | [3] 86 % of control | [4] 100 % of control | [5] 90 % of control | [6] 91 % of control

O=c1[nH]nc(-c2ccccc2)nc1/C(=N\Nc1ccc([N+](=O)[O-])cc1)c1ccccc1
inactive: [9] 89 % of control | [10] 89 % of control | [11] 98 % of control

CSc1nc2nc(Cl)c(Cl)nc2[nH]1
inactive: [12] 104 % of control | [13] 96 % of control | [14] 99 % of control | dose: 50.0 mg/kg/injection, schedule: Q04DX003 (ip), vehicle: saline 102 % of control and 109 % of control | dose: 100.0 mg/kg/injection, schedule: Q01DX009 (ip), vehicle: saline 88 % of control | [15] 95 % of control and 103 % of control | [8] 104 % of control | dose: 200.0 mg/kg/injection, schedule: Q04DX003 (ip), vehicle: saline 109 % of control | dose: 400.0 mg/kg/injection, schedule: Q04DX003 (ip), vehicle: saline 103 % of control

Oc1c(Br)ccc2c(O)c(Br)ccc12
inactive: dose: 132.0 mg/kg/injection, schedule: Q04DX003 (ip), vehicle: saline with Tween-80 109 % of control | [16] 114 % of control | dose: 300.0 mg/kg/injection, schedule: Q04DX003 (ip), vehicle: saline with Tween-80 95 % of control

CN(C)C(=S)NCc1ccccc1
inactive: [9] 109 % of control | [10] 100 % of control | [11] 100 % of control

CCOC(=O)Nc1cc(NC(C)CCCN(CC)CC)c2ncc(-c3ccc(Cl)c(Cl)c3)nc2n1 (centres undefined) (tested in a mixture with another compound)
inactive: [12] 109 % of control | dose: 6.25 mg/kg/injection, schedule: Q04DX003 (ip), vehicle: saline 95 % of control | [17] 100 % of control | dose: 12.5 mg/kg/injection, schedule: Q04DX003 (ip), vehicle: saline 95 % of control | [13] 104 % of control | [14] 104 % of control

Nc1ccn(CC(=O)c2cccs2)c(=O)n1
inactive: dose: 25.0 mg/kg/injection, schedule: Q01DX009 (ip), vehicle: saline with Tween-80 100 % of control | [9] 115 % of control | [10] 100 % of control | dose: 100.0 mg/kg/injection, schedule: Q04DX003 (ip), vehicle: saline with Tween-80 90 % of control | [16] 95 % of control

CCOC(=O)S(=O)(=O)c1ccc(C)cc1
inactive: [12] 90 % of control | [17] 90 % of control | [13] 115 % of control

CCC[CH2][Sn]([I])([CH2]I)[CH2]CCC
inactive: dose: 1.56 mg/kg/injection, schedule: Q01DX009 (ip), vehicle: saline with Tween-80 102 % of control | dose: 3.12 mg/kg/injection, schedule: Q01DX009 (ip), vehicle: saline with Tween-80 106 % of control | dose: 6.25 mg/kg/injection, schedule: Q01DX009 (ip), vehicle: saline with Tween-80 123 % of control

Nc1ncnc2c1ncn2C1OC(CO)C(O)C1O.[Cl][Pt][Cl] (centres undefined)
inactive: dose: 100.0 mg/kg/injection, schedule: Q01DX009 (ip), vehicle: water 115 % of control | dose: 200.0 mg/kg/injection, schedule: Q01DX009 (ip), vehicle: water 102 % of control | dose: 400.0 mg/kg/injection, schedule: Q01DX009 (ip), vehicle: water 96 % of control

O=c1cc2cccccc-2cc1O
inactive: [18] 104 % of control | dose: 20.0 mg/kg/injection, schedule: Q01DX009 (ip), vehicle: saline with Tween-80 113 % of control | dose: 40.0 mg/kg/injection, schedule: Q01DX009 (ip), vehicle: saline with Tween-80 113 % of control

Nc1nc(SN=Nc2ccc(S(=O)(=O)O)cc2)c2[nH]cnc2n1
inactive: dose: 4.0 mg/kg/injection, schedule: Q01DX009 (ip), vehicle: Klucel (hydroxypropylcellulose) (HPC) 113 % of control | dose: 9.0 mg/kg/injection, schedule: Q01DX009 (ip), vehicle: Klucel (hydroxypropylcellulose) (HPC) 121 % of control | dose: 20.0 mg/kg/injection, schedule: Q04DX003 (ip), vehicle: Klucel (hydroxypropylcellulose) (HPC) 108 % of control | dose: 30.0 mg/kg/injection, schedule: Q04DX003 (ip), vehicle: Klucel (hydroxypropylcellulose) (HPC) 120 % of control | dose: 45.0 mg/kg/injection, schedule: Q04DX003 (ip), vehicle: Klucel (hydroxypropylcellulose) (HPC) 112 % of control | dose: 66.0 mg/kg/injection, schedule: Q04DX003 (ip), vehicle: saline 122 % of control | [15] 118 % of control | dose: 150.0 mg/kg/injection, schedule: Q04DX003 (ip), vehicle: Klucel (hydroxypropylcellulose) (HPC) 115 % of control | dose: 150.0 mg/kg/injection, schedule: Q04DX003 (ip), vehicle: saline 113 % of control | [4] 116 % of control

COc1c(O)cc2c(c1OC)-c1ccc(OC)c(=O)cc1[C@@H](NC(C)=O)CC2
inactive: dose: 0.62 mg/kg/injection, schedule: Q01DX009 (ip), vehicle: saline with Tween-80 114 % of control
active: dose: 0.63 mg/kg/injection, schedule: Q01DX009 (ip), vehicle: saline with Tween-80 159 % of control | dose: 1.25 mg/kg/injection, schedule: Q01DX009 (ip), vehicle: saline with Tween-80 210 % of control | dose: 2.5 mg/kg/injection, schedule: Q01DX009 (ip), vehicle: saline with Tween-80 236 % of control and 200 % of control | dose: 5.0 mg/kg/injection, schedule: Q01DX009 (ip), vehicle: saline with Tween-80 236 % of control and 222 % of control | [18] 210 % of control

CCN(c1ccccc1)c1ccc(C=O)cc1
inactive: [2] 94 % of control | [4] 100 % of control

CSc1ccc(NC(=O)NN(c2ccccc2)C2CCS(=O)(=O)C2)cc1 (centres undefined)
inactive: [9] 100 % of control | [10] 102 % of control | [11] 101 % of control

c1csc(CSc2ncnc3nc[nH]c23)c1
inactive: [10] 100 % of control | [11] 100 % of control
